Measured values from patent publication US20210115040A1, “OGA INHIBITOR COMPOUNDS” (Janssen Pharmaceutica NV, priority 2018, published 2021).

Tests used:
[1] = molecular target: T1, recombinant human Meningioma Expressed Antigen 5 (MGEA5), also referred to as O-GlcNAcase (OGA) (Homo sapiens, UniProt O60502); test: OGA biochemical assay (inhibition of FM-GlcNAc hydrolysis, fluorescence); conditions: FM-GlcNAc substrate; for IC50: read-out: Enzymatic hOGA, pIC50 (converted); for Emax / Enzymatic Emax (%): maximal effect; for Emax: read-out: Enzymatic Emax (%)
T1 construct: Full length OGA enzyme was purchased at OriGene (cat #TP322411); purchased OriGene TP322411
T1 sequence (O60502 1-916): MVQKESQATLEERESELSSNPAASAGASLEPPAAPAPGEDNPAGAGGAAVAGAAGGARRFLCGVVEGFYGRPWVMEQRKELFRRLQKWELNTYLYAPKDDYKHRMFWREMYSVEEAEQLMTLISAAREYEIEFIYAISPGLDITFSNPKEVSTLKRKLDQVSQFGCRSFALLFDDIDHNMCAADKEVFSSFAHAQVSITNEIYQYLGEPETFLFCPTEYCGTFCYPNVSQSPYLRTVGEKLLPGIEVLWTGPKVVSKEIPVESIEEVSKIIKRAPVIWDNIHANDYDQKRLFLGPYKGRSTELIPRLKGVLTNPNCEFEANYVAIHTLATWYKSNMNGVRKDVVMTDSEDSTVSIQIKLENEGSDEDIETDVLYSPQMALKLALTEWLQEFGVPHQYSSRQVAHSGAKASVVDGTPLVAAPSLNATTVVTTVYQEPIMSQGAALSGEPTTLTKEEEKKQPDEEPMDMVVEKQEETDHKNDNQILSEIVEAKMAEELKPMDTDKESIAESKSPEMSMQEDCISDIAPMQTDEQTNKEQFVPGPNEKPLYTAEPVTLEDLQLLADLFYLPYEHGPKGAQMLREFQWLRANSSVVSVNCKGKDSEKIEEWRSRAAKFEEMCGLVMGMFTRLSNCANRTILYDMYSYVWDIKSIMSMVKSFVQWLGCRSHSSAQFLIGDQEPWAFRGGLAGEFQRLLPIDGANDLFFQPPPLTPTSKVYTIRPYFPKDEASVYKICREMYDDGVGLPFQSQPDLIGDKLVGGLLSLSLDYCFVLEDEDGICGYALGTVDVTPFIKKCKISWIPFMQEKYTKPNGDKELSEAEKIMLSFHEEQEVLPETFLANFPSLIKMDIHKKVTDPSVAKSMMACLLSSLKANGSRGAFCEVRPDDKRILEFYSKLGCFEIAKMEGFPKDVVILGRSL
Excerpt: The assay is based on the inhibition of the hydrolysis of fluorescein mono-β-D-N-Acetyl-Glucosamine (FM-GlcNAc) (Mariappa et al. 2015, Biochem J 470:255) by the recombinant human Meningioma Expressed Antigen 5 (MGEA5), also referred to as O-GlcNAcase (OGA). The hydrolysis FM-GlcNAc (Marker Gene technologies, cat #M1485) results in the formation of β-D-N-glucosamineacetate and fluorescein. The fluorescence of the latter can be measured at excitation wavelength 485 nm and emission wavelength 538 nm. An increase in enzyme activity results in an increase in fluorescence signal. Full length OGA enzyme was purchased at OriGene (cat #TP322411). The enzyme was stored in 25 mM Tris.HCl, pH 7.3, 100 mM glycine, 10% glycerol at −20° C. Thiamet G and GlcNAcStatin were tested as reference compounds (Yuzwa et al. 2008 Nature Chemical Biology 4:483; Yuzwa et al. 2012 Nature Chemical Biology 8:393). The assay was performed in 200 mM Citrate/phosphate buffer supplemented with 0.005% Tween-20. 35.6 g Na2HPO4 2H2O (Sigma, #C0759) were dissolved in 1 L water to obtain a 200 mM solution. 19.2 g citric acid (Merck, #1.06580) was dissolved in 1 L water to obtain a 100 mM solution. pH of the sodiumphosphate solution was adjusted with the citric acid solution to 7.2. The buffer to stop the reaction consists of a 500 mM Carbonate buffer, pH 11.0. 734 mg FM-GlcNAc were dissolved in 5.48 mL DMSO to obtain a 250 mM solution and was stored at −20° C. OGA was used at a 2 nM concentration and FM-GlcNAc at a 100 uM final concentration. Dilutions were prepared in assay buffer.
50 nl of a compound dissolved in DMSO was dispensed on Black Proxiplate™ 384 Plus Assay plates (Perkin Elmer, #6008269) and 3 μl fl-OGA enzyme mix added subsequently. Plates were pre-incubated for 60 min at room temperature and then 2 μl FM-GlcNAc substrate mix added. […] Plates were briefly centrifuged for 1 min at 1000 rpm and incubate at room temperature for 6 h. To stop the reaction 5 μl STOP buffer were added and plates centrifuge again 1 min at 1000 rpm. Fluorescence was quantified in the Thermo Scientific Fluoroskan Ascent or the PerkinElmer EnVision with excitation wavelength 485 nm and emission wavelength 538 nm.
For analysis a best-fit curve is fitted by a minimum sum of squares method. From this an IC50 value and Hill coefficient was obtained. High control (no inhibitor) and low control (saturating concentrations of standard inhibitor) were used to define the minimum and maximum values.

[2] = molecular target: T2, OGA (Homo sapiens, UniProt O60502); test: OGA cellular assay (ICC detection of O-GlcNAcylated proteins in HEK293 cells inducible for P301L mutant human Tau); format: cell-based; conditions: for Emax / Cellular Emax (%): maximum = Thiamet G 200 uM; for EC50: read-out: Cellular hOGA, pEC50 (converted)
T2 construct: HEK293 cells inducible for P301L mutant human Tau (isoform 2N4R) were established at Janssen; endogenous in cells; host or cells: HEK293 cells inducible for P301L mutant human Tau (2N4R)
T2 sequence (O60502 1-916): T1 sequence (O60502 1-916)
Experimental: HEK293 cells inducible for P301L mutant human Tau (isoform 2N4R) were established at Janssen. Thiamet-G was used for both plate validation (high control) and as reference compound (reference EC50 assay validation). OGA inhibition is evaluated through the immunocytochemical (ICC) detection of O-GlcNAcylated proteins by the use of a monoclonal antibody (CTD110.6; Cell Signaling, #9875) detecting 0-GlcNAcylated residues as previously described (Dorfmueller et al. 2010 Chemistry & biology, 17:1250). Inhibition of OGA will result in an increase of O-GlcNAcylated protein levels resulting in an increased signal in the experiment. Cell nuclei are stained with Hoechst to give a cell culture quality control and a rough estimate of immediate compounds toxicity, if any. ICC pictures are imaged with a Perkin Elmer Opera Phenix plate microscope and quantified with the provided software Perkin Elmer Harmony 4.1.
Cells were propagated in DMEM high Glucose (Sigma, #D5796) following standard procedures. 2 days before the cell assay cells are split, counted and seeded in Poly-D-Lysine (PDL) coated 96-wells (Greiner, #655946) plate at a cell density of 12,000 cells per cm^2 (4,000 cells per well) in 100 μl of Assay Medium (Low Glucose medium is used to reduce basal levels of GlcNAcylation) (Park et al. 2014 The Journal of biological chemistry 289:13519). At the day of compound test medium from assay plates was removed and replenished with 90 μl of fresh Assay Medium. 10 μl of compounds at a 10fold final concentration were added to the wells. Plates were centrifuged shortly before incubation in the cell incubator for 6 hours. DMSO concentration was set to 0.2%. Medium is discarded by applying vacuum. For staining of cells medium was removed and cells washed once with 100 μl D-PBS (Sigma, #D8537). From next step onwards unless other stated assay volume was always 50 μl and incubation was performed without agitation and at room temperature. Cells were fixed in 50 μl of a 4% paraformaldehyde (PFA, Alpha aesar, #043368) PBS solution for 15 minutes at room temperature. […] Before analysis samples were washed 2 times manually for 5 minutes in ICC base buffer.
Imaging is performed using Perkin Elmer Phenix Opera using a water 20× objective and recording 9 fields per well. Intensity readout at 488 nm is used as a measure of O-GlcNAcylation level of total proteins in wells. To assess potential toxicity of compounds nuclei were counted using the Hoechst staining. IC50-values are calculated using parametric non-linear regression model fitting. As a maximum inhibition Thiamet G at a 200 uM concentration is present on each plate. In addition, a concentration response of Thiamet G is calculated on each plate.

[3] = HEK293, HEK293 cells inducible for P301L mutant human Tau
[4] = HEK293 cells inducible for P301L mutant human Tau, 6 hours incubation
[5] = HEK293 cells inducible for P301L mutant human Tau

| IC50 ([1]; 6 h at room temperature) | Emax [1] | EC50 [2, 4] | Compound | further results |
| --- | --- | --- | --- | --- |
| 20 nM | 102% | 200 nM | Cc1cc(C[C@@H]2CCN(C(C)c3nc4nc(C)sc4cc3F)C2)cc(C)n1 (mixture of isomers) [Compound 50] | Emax [2, 3]: 77% |
| 200 nM | 98% | > 1000 nM | Cc1cc(C[C@@H]2CCN([C@H](C)c3cc4nc(C)sc4cc3F)C2)cc(C)n1 [Compound 59] | Emax [2, 3]: 11% |
| 39.8 nM | 99% | > 1000 nM | Cc1cc(O[C@@H]2CCN(C(C)c3nc4nc(C)sc4cc3F)C2)cc(C)n1 (some centres unmarked) [Compound 92] | Emax [2, 3]: 28% |
| 2.51 nM | 99% | 3.16 nM | Cc1cc([C@H]2CCCN([C@@H](C)c3nc4nc(C)sc4cc3F)C2)cc(C)n1 (single isomer, unassigned) [Compound 87] | Emax [2, 3]: 79% |
| 316 nM | 95% | > 1000 nM | Cc1cc(C[C@@H]2CCN(C(C)c3ccc4sc(C)nc4n3)C2)nc(C)n1 (single isomer, unassigned) [Compound 72] | Emax [2, 3]: 18% |
| 5.01 nM | 101% | 15.8 nM | Cc1cc(OC[C@H]2CCCN(C(C)c3ccc4sc(C)nc4n3)C2)cc(C)n1 (mixture of isomers) [Compound 46ab] | Emax [2, 3]: 85% |
| 158 nM | – | – | Cc1cc(O[C@@H]2CCN(C(C)c3ccc4sc(C)nc4n3)C2)cc(C)n1 (single isomer, unassigned) [Compound 74] | Enzymatic Emax (%) [1]: 97%; Cellular hOGA; pEC50 [2, 4]: <6; Cellular Emax (%) [2, 5]: −4% |
| – | – | 31.6 nM | Cc1cc(C2CCCN(C(C)c3cc4nc(C)sc4cc3F)C2)cc(C)n1 (centres unmarked) [Compound 90] | Enzymatic hOGA; pIC50 ([1]; 6 h at room temperature): 8.2; Enzymatic Emax (%) [1]: 101%; Cellular Emax (%) [2, 5]: 84% |
| 316 nM | 98% | – | Cc1cc(OC[C@@H]2CCCN(C(C)c3ccc4sc(C)nc4n3)C2)cc(C)n1 (mixture of isomers) [Compound 45ab] | – |
| 3980 nM | 77% | – | Cc1cc(C[C@H]2CCCN(Cc3ccc4nc(C)sc4c3)C2)cc(C)n1 [Compound 53] | – |
| > 10000 nM | 28% | – | Cc1cc(C[C@H]2CCN(C(C)c3ccc4nc(C)sc4c3)C2)cc(C)n1 (single isomer, unassigned) [Compound 57] | – |

The next lines start with the compound.

| Compound | IC50 ([1]; 6 h at room temperature) | Emax [1] | EC50 [2, 4] | further results |
| --- | --- | --- | --- | --- |
| COc1cc(C2CCCN(C(C)c3ccc4oc(C)nc4n3)C2)cc(C)n1 (racemic) [Compound 18] | 20 nM | 100% | 158 nM | Emax [2, 3]: 76% |
| Cc1cc(C[C@H]2CCCN(C(C)c3ccc4cn(C)nc4c3)C2)cc(C)n1 (mixture of isomers) [Compound 16] | 126 nM | 97% | > 1000 nM | Emax [2, 5]: 14% |
| Cc1cc(C[C@H]2CCCN([C@@H](C)c3ccc4cn(C)nc4n3)C2)cc(C)n1 (relative stereo) [Compound 12a] | 1580 nM | 88% | – | – |
| Cc1cc(C[C@H]2CCN([C@H](C)c3ccc4oc(C)nc4n3)C2)cc(C)n1 [Compound 27b] | > 10000 nM | 47% | – | – |
| Cc1cc(C[C@@H]2CCN([C@H](C)c3cc4nc(C)oc4cc3F)C2)cc(C)n1 (relative stereo) [Compound 33a] | 2.51 nM | 100% | – | – |
| COc1cc(C2CCCN(C(C)c3cnc4[nH]c(C)nc4c3)C2)cc(C)n1 (centres unmarked) [Compound 2] | 200 nM | 97% | – | – |
| COc1cc(C[C@@H]2CCN(C(C)c3ccc4sc(C)nc4n3)C2)cc(C)n1 (mixture of isomers) [Compound 44] | 126 nM | 99% | – | – |
| Cc1cc(C[C@H]2CCCN(C(C)c3ccc4sc(C)nc4n3)C2)cc(C)n1 (single isomer, unassigned) [Compound 42a] | 501 nM | 98% | – | – |
| Cc1cc(C[C@H]2CCCN([C@H](C)c3ccc4cn(C)nc4n3)C2)cc(C)n1 (relative stereo) [Compound 12b] | 15.8 nM | 100% | – | – |
| Cc1cc(OC2CCCN(C(C)c3ccc4[nH]c(C)nc4n3)C2)cc(C(F)(F)F)n1 (centres unmarked) [Compound 5] | 794 nM | 94% | – | – |
| Cc1cc(C[C@H]2CCN([C@@H](C)c3ccc4oc(C)nc4n3)C2)cc(C)n1 [Compound 27a] | 200 nM | 99% | – | – |
| Cc1cc(OC[C@H]2CCCN(C(C)c3cc4nc(C)oc4cc3F)C2)cc(C)n1 (mixture of isomers) [Compound 34] | 10 nM | 101% | – | – |
| Cc1cc(C[C@H]2CCN(C(C)c3ccc4oc(C)nc4n3)C2)cc(C(F)(F)F)n1 (mixture of isomers) [Compound 29] | 126 nM | 103% | – | – |
